Data published in PubChem BioAssay (NCI).
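Step 1: Grow cells in 96-well plates. Step 2: Expose to compound for 48 hours at 5 concentrations. Step 3: Interpolate endpoints linearly; if unreached, use highest concentration. Abbreviation: GI50, concentration required for 50% inhibition of growth. TGI: concentration producing complete growth inhibition.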

What was measured:
Test in all cases: DTP human tumour cell line panel, 48 h
SF-539 CNS = system: SF-539 CNS
SK-MEL-28 melanoma = system: SK-MEL-28 melanoma
PC-3 prostate = system: PC-3 prostate
U251 CNS = system: U251 CNS
A498 renal = system: A498 renal
SF-295 CNS = system: SF-295 CNS
OVCAR-5 ovarian = system: OVCAR-5 ovarian
UACC-257 melanoma = system: UACC-257 melanoma
M14 melanoma = system: M14 melanoma
CAKI-1 renal = system: CAKI-1 renal
K-562 leukemia = system: K-562 leukemia
SNB-19 CNS = system: SNB-19 CNS
MCF7 breast = system: MCF7 breast
SW-620 colon = system: SW-620 colon
DU-145 prostate = system: DU-145 prostate
NCI-H460 lung = system: NCI-H460 lung
LOX IMVI melanoma = system: LOX IMVI melanoma
EKVX NSCLC = system: EKVX NSCLC
NCI-H226 lung = system: NCI-H226 lung
MDA-MB-435 = system: MDA-MB-435
HL-60(TB) leukemia = system: HL-60(TB) leukemia
HOP-62 NSCLC = system: HOP-62 NSCLC
COLO 205 colon = system: COLO 205 colon
HCT-15 colon = system: HCT-15 colon
SK-MEL-5 melanoma = system: SK-MEL-5 melanoma
HCT-116 colon = system: HCT-116 colon
ACHN renal = system: ACHN renal
MOLT-4 leukemia = system: MOLT-4 leukemia
HOP-92 NSCLC = system: HOP-92 NSCLC
IGROV1 ovarian = system: IGROV1 ovarian
NCI-H23 lung = system: NCI-H23 lung
BT-549 breast = system: BT-549 breast
UO-31 renal = system: UO-31 renal
SK-OV-3 ovarian = system: SK-OV-3 ovarian
OVCAR-8 ovarian = system: OVCAR-8 ovarian
OVCAR-3 ovarian = system: OVCAR-3 ovarian
RXF 393 renal = system: RXF 393 renal
HS 578T breast = system: HS 578T breast
HCC-2998 colon = system: HCC-2998 colon
MALME-3M melanoma = system: MALME-3M melanoma
KM12 colon = system: KM12 colon
A549 NSCLC = system: A549 NSCLC
786-0 renal = system: 786-0 renal
MDA-MB-468 breast = system: MDA-MB-468 breast
T-47D breast = system: T-47D breast
SF-268 CNS = system: SF-268 CNS
NCI-H522 lung = system: NCI-H522 lung
HT29 colon = system: HT29 colon
TK-10 renal = system: TK-10 renal
UACC-62 melanoma = system: UACC-62 melanoma
OVCAR-4 ovarian = system: OVCAR-4 ovarian
SNB-75 CNS = system: SNB-75 CNS
SN12C renal = system: SN12C renal
MDA-MB-231 breast = system: MDA-MB-231 breast

Compound `Cc1cc(C(F)(F)F)ccc1C(=O)Nc1sc2c(c1C#N)CCC(=O)C2` has a GI50 (SF-539 CNS) of 496 nM, a TGI (SF-539 CNS) of 1900 nM and a GI50 (SK-MEL-28 melanoma) of 1240 nM. For the same compound, the TGI (SK-MEL-28 melanoma) was 2620 nM, the GI50 (PC-3 prostate) was 333 nM and the TGI (PC-3 prostate) was 3280 nM. The GI50 (U251 CNS) was 2250 nM, the TGI (U251 CNS) was 13200 nM and the GI50 (A498 renal) was 23200 nM. The TGI (A498 renal) was 93500 nM, the GI50 (SF-295 CNS) was 2010 nM and the TGI (SF-295 CNS) was 5910 nM. The GI50 (OVCAR-5 ovarian) was 2020 nM, the TGI (OVCAR-5 ovarian) was 5940 nM and the GI50 (UACC-257 melanoma) was 1900 nM. For the same compound, the TGI (UACC-257 melanoma) was 5280 nM, the GI50 (M14 melanoma) was 1390 nM and the TGI (M14 melanoma) was 3610 nM. For the same compound, the GI50 (CAKI-1 renal) was 1320 nM, the TGI (CAKI-1 renal) was 2950 nM and the GI50 (K-562 leukemia) was 240 nM. It also gave a TGI (K-562 leukemia) greater than 100000 nM, a GI50 (SNB-19 CNS) of 3910 nM and a TGI (SNB-19 CNS) greater than 100000 nM. It also gave a GI50 (MCF7 breast) of 1780 nM, a TGI (MCF7 breast) of 11300 nM and a GI50 (SW-620 colon) of 504 nM. The TGI (SW-620 colon) was 2570 nM, the GI50 (DU-145 prostate) was 3570 nM and the TGI (DU-145 prostate) was greater than 100000 nM. It also gave a GI50 (NCI-H460 lung) of 3160 nM, a TGI (NCI-H460 lung) of 69600 nM and a GI50 (LOX IMVI melanoma) of 1060 nM. For the same compound, the TGI (LOX IMVI melanoma) was 3730 nM, the GI50 (EKVX NSCLC) was 2630 nM and the TGI (EKVX NSCLC) was 12000 nM. For the same compound, the GI50 (NCI-H226 lung) was 2830 nM, the TGI (NCI-H226 lung) was 18500 nM and the GI50 (MDA-MB-435) was 1880 nM. It also gave a TGI (MDA-MB-435) of 4340 nM, a GI50 (HL-60(TB) leukemia) of 448 nM and a TGI (HL-60(TB) leukemia) of 13700 nM. It also gave a GI50 (HOP-62 NSCLC) of 3100 nM, a TGI (HOP-62 NSCLC) greater than 100000 nM and a GI50 (COLO 205 colon) of 2030 nM. The TGI (COLO 205 colon) was 3680 nM, the GI50 (HCT-15 colon) was 552 nM and the TGI (HCT-15 colon) was 2360 nM. The GI50 (SK-MEL-5 melanoma) was 1540 nM, the TGI (SK-MEL-5 melanoma) was 2960 nM and the GI50 (HCT-116 colon) was 411 nM. The TGI (HCT-116 colon) was 10300 nM, the GI50 (ACHN renal) was 1090 nM and the TGI (ACHN renal) was 2570 nM. For the same compound, the GI50 (MOLT-4 leukemia) was 619 nM, the TGI (MOLT-4 leukemia) was 12300 nM and the GI50 (HOP-92 NSCLC) was 957 nM. The TGI (HOP-92 NSCLC) was 2620 nM, the GI50 (IGROV1 ovarian) was 3420 nM and the TGI (IGROV1 ovarian) was 13500 nM. It also gave a GI50 (NCI-H23 lung) of 1710 nM, a TGI (NCI-H23 lung) of 6500 nM and a GI50 (BT-549 breast) of 591 nM. The TGI (BT-549 breast) was 3040 nM, the GI50 (UO-31 renal) was 1120 nM and the TGI (UO-31 renal) was 2380 nM. It also gave a GI50 (SK-OV-3 ovarian) of 9210 nM, a TGI (SK-OV-3 ovarian) of 28500 nM and a GI50 (OVCAR-8 ovarian) of 1800 nM. It also gave a TGI (OVCAR-8 ovarian) of 27300 nM, a GI50 (OVCAR-3 ovarian) of 1400 nM and a TGI (OVCAR-3 ovarian) of 3240 nM. For the same compound, the GI50 (RXF 393 renal) was 659 nM, the TGI (RXF 393 renal) was 3090 nM and the GI50 (HS 578T breast) was 2240 nM. For the same compound, the TGI (HS 578T breast) was 22600 nM, the GI50 (HCC-2998 colon) was 2730 nM and the TGI (HCC-2998 colon) was 9210 nM. The GI50 (MALME-3M melanoma) was 1450 nM, the TGI (MALME-3M melanoma) was 3010 nM and the GI50 (KM12 colon) was 1080 nM. For the same compound, the TGI (KM12 colon) was 5000 nM, the GI50 (A549 NSCLC) was 3420 nM and the TGI (A549 NSCLC) was 23100 nM. For the same compound, the GI50 (786-0 renal) was 3510 nM, the TGI (786-0 renal) was greater than 100000 nM and the GI50 (MDA-MB-468 breast) was 1540 nM. It also gave a TGI (MDA-MB-468 breast) of 5040 nM, a GI50 (T-47D breast) of 453 nM and a TGI (T-47D breast) of 2520 nM. It also gave a GI50 (SF-268 CNS) of 2830 nM, a TGI (SF-268 CNS) of 20500 nM and a GI50 (NCI-H522 lung) of 288 nM. For the same compound, the TGI (NCI-H522 lung) was 1010 nM, the GI50 (HT29 colon) was 973 nM and the TGI (HT29 colon) was 3430 nM. For the same compound, the GI50 (TK-10 renal) was 1590 nM, the TGI (TK-10 renal) was 24900 nM and the GI50 (UACC-62 melanoma) was 1220 nM. It also gave a TGI (UACC-62 melanoma) of 2670 nM, a GI50 (OVCAR-4 ovarian) of 1250 nM and a TGI (OVCAR-4 ovarian) of 2940 nM. It also gave a GI50 (SNB-75 CNS) of 1030 nM, a TGI (SNB-75 CNS) of 6740 nM and a GI50 (SN12C renal) of 1640 nM. For the same compound, the TGI (SN12C renal) was 10900 nM, the GI50 (MDA-MB-231 breast) was 1560 nM and the TGI (MDA-MB-231 breast) was 3390 nM.
